Reference: US9732104B2, “Ether compounds for treatment of complement mediated disorders” (Achillion Pharmaceuticals, Inc., priority 2014, dated 2017)

Biological target: Human factor D (Homo sapiens (Human), UniProt P00746)
Experiment: Human Factor D Assay
Assay type: biochemical
Details: Human factor D purified from human serum, 80 nM; substrate Z-L-Lys-SBzl with DTNB; assay of Example 8
Description: The assay of Example 8 was used to determine the IC50's of the compounds. Other standard factor D inhibition assays are also available.
Example 8. Human Factor D Assay
Human factor D (purified from human serum, Complement Technology, Inc.) at 80 nM final concentration is incubated with test compound at various concentrations for 5 minutes at room temperature in 50 mM Tris, 1M NaCl, pH 7.5. A synthetic substrate Z-L-Lys-SBzl and DTNB (Ellman's reagent) are added to final concentrations of 100 µM each. The increase in color is recorded at OD405 nm in a microplate in kinetic mode over 30 minutes with 30 second time points in a […]. IC50 values are calculated by non-linear regression from the percentage of inhibition of complement factor D activity as a function of test compound concentration.

Human factor D, sequence (P00746 26-253): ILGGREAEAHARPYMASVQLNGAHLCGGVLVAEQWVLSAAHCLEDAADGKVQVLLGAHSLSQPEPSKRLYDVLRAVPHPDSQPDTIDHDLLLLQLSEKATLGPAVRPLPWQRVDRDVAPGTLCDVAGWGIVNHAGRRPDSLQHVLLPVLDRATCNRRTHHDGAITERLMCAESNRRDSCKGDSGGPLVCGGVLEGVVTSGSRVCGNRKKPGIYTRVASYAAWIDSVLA

| Compound | IC50 [µM] |
| --- | --- |
| CC(=O)c1cn(CC(=O)N2C[C@H](F)C[C@H]2C(=O)NCc2cccc(Cl)c2F)c2cc(OCP(=O)(OCOC(=O)C(C)(C)C)OCOC(=O)C(C)(C)C)ccc12 [Compound 21, (((3-acetyl-1-(2-((2S,4R)-2-(3-chloro-2-fluorobenzylcarbamoyl)-4-fluoropyrrolidin-1-yl)-2-oxoethyl)-1H-indol-6-yloxy)methyl)phosph-oryl)bis(oxy)bis(meth-ylene) bis(2,2-dimethylpropanoate)] | < 1 |
| CC(=O)c1cn(CC(=O)N2C[C@H](F)C[C@H]2CNS(=O)(=O)c2cccc(Cl)c2F)c2cc(OCP(=O)(O)O)ccc12 [Compound 22, (3-acetyl-1-(2-((2S,4R)-2-((3-chloro-2-fluoro-phenylsulfonamido)meth-yl)-4-fluoropyrrolidin-1-yl)-2-oxoethyl)-1H-indol-6-yloxy)methylphosphonic acid] | < 1 |
| CCC(=O)OC(OP(=O)(COc1ccc2c(C(C)=O)cn(CC(=O)N3C[C@H](F)C[C@H]3C(=O)NCc3cccc(Cl)c3F)c2c1)OC(OC(=O)CC)C(C)C)C(C)C (stereo partly drawn) [Compound 23, 1,1′-(((3-acetyl-1-(2-((2S,4R)-2-(3-chloro-2-fluorobenzylcarbamoyl)-4-fluoropyrrolidin-1-yl)-2-oxoethyl)-1H-indol-6-yloxy)methyl)phosph-oryl)bis(oxy)bis(2-methylpropane-1,1-diyl) dipropionate] | < 1 |
| CC(=O)c1cn(CC(=O)N2C[C@H](F)C[C@H]2C(=O)NCc2cccc(Cl)c2F)c2cc(OCP(=O)(N[C@@H](C)C(=O)OC(C)C)N[C@@H](C)C(=O)OC(C)C)ccc12 [Compound 24, (2S,2′S)-isopropyl 2,2′-(((3-acetyl-1-(2-((2S,4R)-2-(3-chloro-2-fluorobenzylcarbamoyl)-4-fluoropyrrolidin-1-yl)-2-oxoethyl)-1H-indol-6-yloxy)methyl)phosph-oryl)bis(azanediyl)di-propanoate] | < 1 |
| CC(=O)c1cn(CC(=O)N2C[C@H](F)C[C@H]2C(=O)Nc2ccc(OC(F)(F)F)c(F)c2)c2cc(OCP(=O)(O)O)ccc12 [Compound 25, (3-acetyl-1-(2-((2S,4R)-4-fluoro-2-(3-fluoro-4-(trifluoromethoxy)phen-ylcarbamoyl)pyrrolidin-1-yl)-2-oxoethyl)-1H-indol-6-yloxy)methylphosphonic acid] | < 1 |
| CC(=O)c1cn(CC(=O)N2C[C@H](F)C[C@H]2C(=O)Nc2cccc(Oc3ccccc3)c2)c2cc(OCP(=O)(O)O)ccc12 [Compound 26, (3-acetyl-1-(2-((2S,4R)-4-fluoro-2-(3-phenoxy-phenylcarbamoyl)pyrrolidin-1-yl)-2-oxoethyl)-1H-indol-6-yloxy)methylphosphonic acid] | < 1 |
| CC(=O)c1cn(CC(=O)N2C[C@H](F)C[C@H]2C(=O)Nc2cccc(OC(F)(F)F)c2F)c2cc(OCP(=O)(O)O)ccc12 [Compound 27, (3-acetyl-1-(2-((2S,4R)-4-fluoro-2-(2-fluoro-3-(trifluoromethoxy)phenyl-carbamoyl)pyrrolidin-1-yl)-2-oxoethyl)-1H-indol-6-yloxy)methylphosphonic acid] | < 1 |
| CC(C)(C)NS(=O)(=O)COc1ccc2c(C(N)=O)nn(CC(=O)N3C[C@H](F)C[C@H]3C(=O)Nc3cccc(-c4ccccc4Cl)c3F)c2c1 [Compound 28, 6-(N-tert-butylsulfamoylmethoxy)-1-(2-((2S,4R)-2-(2′-chloro-2-fluorobiphenyl-3-ylcarbamoyl)-4-fluoropyrrolidin-1-yl)-2-oxoethyl)-1H-indazole-3-carboxamide] | < 1 |
| NC(=O)c1nn(CC(=O)N2C[C@H](F)C[C@H]2C(=O)Nc2cccc(-c3ccccc3Cl)c2F)c2cc(OCS(N)(=O)=O)ccc12 [Compound 29, 1-(2-((2S,4R)-2-(2′-chloro-2-fluorobiphenyl-3-ylcarbamoyl)-4-fluoropyrrolidin-1-yl)-2-oxoethyl)-6-(sulfamoylmethoxy)-1H-indazole-3-carboxamide] | < 1 |
| CC(=O)c1cn(CC(=O)N2C[C@H](F)C[C@H]2C(=O)NCc2cccc(Cl)c2F)c2cc(Oc3ncccn3)ccc12 [Compound 30, (2S,4R)-1-(2-(3-acetyl-6-(pyrimidin-2-yloxy)-1H-indol-1-yl)acetyl)-N-(3-chloro-2-fluorobenzyl)-4-fluoropyrrolidine-2-carboxamide] | < 1 |
| NC(=O)c1nn(CC(=O)N2C[C@H](F)C[C@H]2C(=O)Nc2cccc(-c3ccccc3Cl)c2F)c2ccc(Oc3cncnc3)cc12 [Compound 31, 1-(2-((2S,4R)-2-(2′-chloro-2-fluorobiphenyl-3-ylcarbamoyl)-4-fluoropyrrolidin-1-yl)-2-oxoethyl)-5-(pyrimidin-5-yloxy)-1H-indazole-3-carboxamide] | < 1 |
| CC(=O)c1cn(CC(=O)N2C[C@H](F)C[C@H]2C(=O)Nc2cccc(-c3ccccc3Cl)c2F)c2cc(Oc3ncccn3)ccc12 [Compound 32, (2S,4R)-1-(2-(3-acetyl-6-(pyrimidin-2-yloxy)-1H-indol-1-yl)acetyl)-N-(2′-chloro-2-fluorobiphenyl-3-yl)-4-fluoropyrrolidine-2-carboxamide] | < 1 |
| CC(=O)c1cn(CC(=O)N2C[C@H](F)C[C@H]2C(=O)Nc2cccc(-c3ccccc3Cl)c2F)c2ccc(Oc3ncc(Br)cn3)cc12 [Compound 33, (2S,4R)-1-(2-(3-acetyl-5-(5-bromopyrimidin-2-yloxy)-1H-indol-1-yl)acetyl)-N-(2′-chloro-2-fluorobiphenyl-3-yl)-4-fluoropyrrolidine-2-carboxamide] | < 1 |
| CC(=O)c1cn(CC(=O)N2C[C@H](F)C[C@H]2C(=O)Nc2cccc(-c3ccccc3Cl)c2F)c2ccc(Oc3cnc(C#N)nc3)cc12 [Compound 36, (2S,4R)-1-(2-(3-acetyl-5-(2-cyanopyrimidin-5-yloxy)-1H-indol-1-yl)acetyl)-N-(2′-chloro-2-fluorobiphenyl-3-yl)-4-fluoropyrrolidine-2-carboxamide] | < 1 |
| CC(=O)c1cn(CC(=O)N2C[C@H](F)C[C@H]2C(=O)Nc2cccc(-c3ccccc3Cl)c2F)c2ccc(Oc3ncc(F)cn3)cc12 [Compound 37, (2S,4R)-1-(2-(3-acetyl-5-(5-fluoropyrimidin-2-yloxy)-1H-indol-1-yl)acetyl)-N-(2′-chloro-2-fluorobiphenyl-3-yl)-4-fluoropyrrolidine-2-carboxamide] | < 1 |
| CC(=O)c1cn(CC(=O)N2C[C@H](F)C[C@H]2C(=O)Nc2cccc(-c3ccccc3Cl)c2F)c2ccc(Oc3ncccn3)cc12 [Compound 38, (2S,4R)-1-(2-(3-acetyl-5-(pyrimidin-2-yloxy)-1H-indol-1-yl)acetyl)-N-(2′-chloro-2-fluorobiphenyl-3-yl)-4-fluoropyrrolidine-2-carboxamide] | < 1 |
| CC(=O)c1cn(CC(=O)N2C[C@H](F)C[C@H]2C(=O)Nc2cccc(Br)n2)c2ccc(Oc3ncccn3)cc12 [Compound 39, (2S,4R)-1-(2-(3-acetyl-5-(pyrimidin-2-yloxy)-1H-indol-1-yl)acetyl)-N-(6-bromopyridin-2-yl)-4-fluoropyrrolidine-2-carboxamide] | < 1 |
| CC(=O)c1cn(CC(=O)N2C[C@H](F)C[C@H]2C(=O)Nc2cccc(-c3ccccc3Cl)c2F)c2ccc(Oc3ncc(C)cn3)cc12 [Compound 40, (2S,4R)-1-(2-(3-acetyl-5-(5-methylpyrimidin-2-yloxy)-1H-indol-1-yl)acetyl)-N-(2′-chloro-2-fluorobiphenyl-3-yl)-4-fluoropyrrolidine-2-carboxamide] | < 1 |
